Experimental data from patent US20250275948A1, “(N-[4-(2,3-DIHYDRO-1H-INDEN-5-YL)-1,3-THIAZOL-2-YL]-2-[4-METHYL-4-(NAPHTHALEN-2-YL)-2,5-DIOXOIMIDAZOLIDIN-1-YL]ACETAMIDE AS STABILIZER OF CLOCK:BMAL1 INTERACTION FOR THE TREATMENT OF CIRCADIAN RHYTHM DISEASES AND DISORDERS” (KOC UNIVERSITESI, priority 2022, published 2025).

How the values were obtained:
[1] = test system: NIH 3T3 Bmal1-dLuc and U2OS Bmal1-dLuc cells; assay: Real-time monitoring of circadian oscillation; type: cell-based
Protocol: NIH 3T3 Bmal1-dLuc and U2OS Bmal1-dLuc cells were used for real-time monitoring of circadian oscillation. While LumiCycle 32 (Actimetrics, USA) was used for recording the luminescence signals of NIH 3T3 Bmal1-dLuc cells, Synergy H1 (BioTek, USA) was used for recording the luminescence signals of U2OS Bmal1-dLuc cells. NIH 3T3 Bmal1-dLuc cells were plated in 35 mm cell culture dish at density of 45×10^4 cell/plate and incubated overnight at 37° C. under 5% CO2. The next day, cell medium was replaced with 0.1 μM Dexamethasone (Sigma D-8893) containing DMEM to synchronize the cells. After 2 hours incubation, cell media was exchanged with appropriate amount of CLK95 containing recording medium (10 g low glucose DMEM powder (Sigma D2902), 3.5 mg/mL D(+) glucose powder (Sigma G7021), 0.35 mg/mL sodium bicarbonate (Sigma S5761), 10 mM HEPES (Gibco 15630106), 5% FBS (Gibco, 16000044), 1% NEAA (Multicell 321-011-EL), 25 U/mL streptomycin-penicillin (Gibco 15140-122) which was supplemented with 0.1 mM Luciferin. Then plates were sealed with silicone grease to prevent evaporation and immediately placed in LumiCycle. This instrument continuously recorded the luminescence for each plate for 5-7 days with 10 minutes intervals at 37° C. LumiCycle Analysis software (Actimetrics) was used to analyse the changes in circadian rhythm. The data of the first day was excluded from analysis due to transient deviations caused after medium change.
For the experiments that were performed using Synergy-H1, U2OS Bmal1-dLuc cells were plated as triplicates into an opaque 96-well plate (5×10^4 cell/well). After synchronizing and treating the cells with CLK95, opaque 96-well plate was sealed with an optically clear film and placed under Synergy-H1 instrument. Luminescence signals were recorded for 5-7 days with 24 minutes intervals at 32° C.

[2] = molecular target: T1, CLOCK and BMAL1 (Mus musculus, UniProt O08785+Q9WTL8); assay: Subcellular fractionation from mice liver; parameters: species or system mice (C57BL/6J); conditions: in vivo and in vitro
T1 construct: from tissue; host or cells: liver of C57BL/6J mice
Protocol: 8-12 weeks old male C57BL/6J mice were used for in vivo studies. Mice weighing 24-28 grams were subjected to a single dose of CLK95 (50 mg/kg) or vehicle (DMSO:Cremophor EL: 0.9% NaCl; 2.5:15:82.5, v/v/v) intraperitoneally. Animals which were obtained from Koç University Animal Research Facility were fed ad libitum. Four hours after treatment, animals were sacrificed, and the internal organs were harvested.
Subcellular fractionation from mice liver was performed by using 10 mg tissue sample. Buffers that were used in this process are same as in given in section 3.13. First, the tissue was washed in 500 μL ice-cold 1×PBS buffer and then resuspended in 300 μL cytosolic lysis buffer by pipetting and incubated on ice for 10 min. Samples were centrifuged at 660×g for 5 minutes (4° C.) to get rid of cell debris. While supernatants were collected and transferred to new microcentrifuge tubes for processing later to give cytosolic fractions, pellets containing intact nucleus were washed 3 times with 300 μL cytosolic lysis buffer. At the end of each wash, suspensions were centrifugated for 5 minutes at 660×g (4° C.). […] Samples were analysed with Western blot as described earlier using anti-CLOCK (Bethyl, A302-618A), anti-BMAL1 (Santa Cruz Biotech., SC-365645), anti-CRY1 (Bethyl, A302-614A), anti-Histone H3 (Abcam, ab1791), and anti-αTUBULIN (Sigma-Aldrich, T9026) antibodies were used.

[3] = NIH3T3 Bmal1-dLuc (Lumicycle) and U2OS Bmal1-dLuc (Synergy H1) cells

## CC1(c2ccc3ccccc3c2)NC(=O)N(CC(=O)Nc2nc(-c3ccc4c(c3)CCC4)cs2)C1=O (centres unmarked) [CLK95]
[1]; Bmal1-dLuc U2OS cells
  effect on circadian rhythm: destroying the circadian rhythm
[1]; [3]
  effect on circadian amplitude: decreases the amplitude
  effect on circadian period: increases the period
[1]; higher doses
  effect of higher doses on endogenous clock: completely suppress the endogenous clock
[2]
  translocation of CLOCK and BMAL1 into the nucleus: interfering with the translocation of CLOCK and BMAL1 into the nucleus both in vivo and in vitro
